This is an account of results in patent US6872805B2 (Bristol-Myers Squibb Company, priority 2000, dated 2005).

The structures appear in SMILES notation.

The target of assay [1] is HCV NS3/4A protease complex (Hepatitis C virus genotype 1a, UniProt P27958, C1454S/C1711G). As to the kind of experiment: Recombinant HCV NS3/4A protease complex FRET peptide assay (strain not stated). It is filed as biochemical. The following applies: IC50, NS3/4A protease enzyme assay, strain not stated; activity ranges.
Sequence of HCV NS3/4A protease complex (P27958 1027-1711, stated change not applied): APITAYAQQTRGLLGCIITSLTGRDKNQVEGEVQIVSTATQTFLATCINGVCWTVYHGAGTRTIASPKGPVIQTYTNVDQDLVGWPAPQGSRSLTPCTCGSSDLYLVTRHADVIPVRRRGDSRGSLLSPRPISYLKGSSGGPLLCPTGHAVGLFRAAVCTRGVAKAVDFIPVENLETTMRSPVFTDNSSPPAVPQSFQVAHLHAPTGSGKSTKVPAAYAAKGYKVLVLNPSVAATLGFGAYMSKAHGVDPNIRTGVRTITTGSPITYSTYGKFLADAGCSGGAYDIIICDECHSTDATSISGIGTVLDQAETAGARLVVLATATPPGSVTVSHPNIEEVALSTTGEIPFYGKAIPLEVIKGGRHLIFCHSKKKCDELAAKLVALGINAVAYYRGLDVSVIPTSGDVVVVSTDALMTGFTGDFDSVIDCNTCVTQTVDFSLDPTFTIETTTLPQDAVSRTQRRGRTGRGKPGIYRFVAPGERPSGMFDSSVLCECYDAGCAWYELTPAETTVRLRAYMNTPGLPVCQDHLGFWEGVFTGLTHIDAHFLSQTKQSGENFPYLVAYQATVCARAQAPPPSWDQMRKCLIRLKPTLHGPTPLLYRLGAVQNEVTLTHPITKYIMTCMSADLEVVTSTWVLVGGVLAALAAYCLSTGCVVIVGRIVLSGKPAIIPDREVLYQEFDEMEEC
Sequence of HCV NS3/4A protease complex (P27958 1027-1711, stated change not applied): as above
The subject of assay [2] is HCV replicon in Huh7 cells. The assay can be described thus: HCV replicon cell-based assay. The following applies: Hepatitis C virus, Huh-7, 96 h; HCV replicon, Huh7 cells, 4 days; activity ranges; read-out: EC50. On the set-up: species or system HCV strain 1B. In outline:
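Genotype 1b subgenomic replicon Huh7 cells exposed to compound 4 days at 37° C in 4% FCS, 0.5% DMSO medium. EC50 from TaqMan RT-PCR of HCV RNA, normalized to total RNA by RiboGreen; CC50 from alamar Blue fluorescence after 4 h.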

As to `C=C[C@@H]1C[C@]1(NC(=O)C1C[C@@H](Oc2cc(-c3ccccc3)nc3cc(OC)ccc23)CN1C(=O)[C@@H](Nc1ccncc1[N+](=O)[O-])C(C)(C)C)C(=O)NS(=O)(=O)C1CC1` (stereo partly drawn) [Compound 129, 1-[3,3-dimethyl-2S-(3-nitropyridin-4-ylamino)-butyryl]-4R-(7-methoxy-2-phenylquinolin-4-yloxy)-pyrrolidine-2S-carboxylic acid (1R-cyclopropanesulfonylaminocarbonyl-2S-vinylcyclopropyl)amide], the IC50 (commonly the concentration needed to halve the response being measured) in assay [1] was less than 5 µM. In addition, the EC50 (in general, the concentration needed to bring the measured effect to its halfway point) in assay [2] was less than 50 µM.
On to `C=CC1C[C@]1(NC(=O)C1CC(Oc2cc(-c3ccccc3)nc3cc(OC)ccc23)CN1C(=O)[C@@H](NC)C(C)(C)C)C(=O)NS(=O)(=O)C1CC1` (stereo partly drawn) [Compound 132, (3,3-dimethyl-2-methylamino-butyryl)-4R-(7-methoxy-2-phenyl-quinolin-4-yloxy)-pyrrolidine-2S-carboxylic acid (1R-cyclopropanesulfonylaminocarbonyl-2S-vinyl-cyclo-propyl)amide], for which the IC50 in assay [1] is less than 0.05 µM. In addition, the EC50 in assay [2] is less than 5 µM.
For `COc1ccc2c(OC3C[C@@H](C(=O)NC4(C(=O)NS(=O)(=O)C5CC5)CC45CCC5)N(C(=O)[C@@H](NC(=O)OC(C)(C)C)C(C)(C)C)C3)cc(-c3ccccc3)nc2c1` (stereo partly drawn) [Compound 136, {1-[2-(1-Cyclopropanesulfonylaminocarbonyl-spiro[2.3]hex-1-ylcarbamoyl)-4-(7-methoxy-2-phenyl-quinolin-4-yloxy)-pyrrolidine-1-carbonyl]-2,2-dimethyl-propyl}-carbamic acid tert-butyl ester], in that order: less than 0.5 µM and less than 5 µM.
For `CCC(C)[C@H](NC(=O)OC(C)(C)C)C(=O)N1C[C@H](Oc2cc(-c3ccccc3)nc3cc(OC)ccc23)C[C@H]1C(=O)NC1(C(=O)NS(=O)(=O)C2CC2)CC12CCC2` (stereo partly drawn) [Compound 137], in that order: less than 5 µM and less than 5 µM.
For `COc1ccc2c(OC3C[C@@H](C(=O)NC4(C(=O)NS(=O)(=O)C5CC5)CC45CC5)N(C(=O)[C@@H](NC(=O)OC(C)(C)C)C(C)(C)C)C3)cc(-c3ccccc3)nc2c1` (stereo partly drawn) [Compound 140, {1-[2-(1-Cyclopropanesulfonylaminocarbonyl-spiro[2.2]pentane-1-ylcarbamoyl)-4-(7-methoxy-2-phenyl-quinolin-4-yloxy)-pyrrolidine-1-carbonyl]-2,2-dimethyl-propyl}-carbamic acid tert-butyl ester], in that order: less than 0.05 µM and less than 0.5 µM.
Take `COc1ccc2c(OC3C[C@@H](C(=O)NC4(C(=O)NS(=O)(=O)C5CC5)CCC45CC5)N(C(=O)[C@@H](NC(=O)OC(C)(C)C)C(C)(C)C)C3)cc(-c3ccccc3)nc2c1` (stereo partly drawn) [Compound 141]: in assay [1], the IC50 is less than 0.5 µM. Also, in assay [2], the EC50 was less than 5 µM.
